In patent US20130102595A1 (Curis, Inc., priority 2011, published 2013):

Tests used:
[1] = test system: HDACs (HeLa cell nuclear extracts); assay: HDAC enzymatic activity, Biomol Color de Lys system; assay type: biochemical; conditions: 1 hour, 25° C.
Summary of the method: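 HeLa nuclear extract incubated with serially diluted compound and […] artificial substrate in 50 mM Tris/Cl pH 8.0, 137 mM NaCl, 2.7 mM KCl, 1 mM MgCl2. Run 1 h at 25 °C, stopped with developer. Fluorescence read (ex 350-380, em 440-460 nm); IC50 from sigmoidal dose-response fit.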

PI3Kα (p110α/p85α) = target: T1, PI3Kα (p110α/p85α) (Homo sapiens, UniProt P42336); assay: PI3Kα ADP-Glo assay; assay type: biochemical; conditions: 20 μM PIP2, 10 μM ATP, 30 minutes
T1 construct: GST (N); made in house; host or cells: Baculovirus-infected Sf9 cells
T1 sequence (P42336 whole entry): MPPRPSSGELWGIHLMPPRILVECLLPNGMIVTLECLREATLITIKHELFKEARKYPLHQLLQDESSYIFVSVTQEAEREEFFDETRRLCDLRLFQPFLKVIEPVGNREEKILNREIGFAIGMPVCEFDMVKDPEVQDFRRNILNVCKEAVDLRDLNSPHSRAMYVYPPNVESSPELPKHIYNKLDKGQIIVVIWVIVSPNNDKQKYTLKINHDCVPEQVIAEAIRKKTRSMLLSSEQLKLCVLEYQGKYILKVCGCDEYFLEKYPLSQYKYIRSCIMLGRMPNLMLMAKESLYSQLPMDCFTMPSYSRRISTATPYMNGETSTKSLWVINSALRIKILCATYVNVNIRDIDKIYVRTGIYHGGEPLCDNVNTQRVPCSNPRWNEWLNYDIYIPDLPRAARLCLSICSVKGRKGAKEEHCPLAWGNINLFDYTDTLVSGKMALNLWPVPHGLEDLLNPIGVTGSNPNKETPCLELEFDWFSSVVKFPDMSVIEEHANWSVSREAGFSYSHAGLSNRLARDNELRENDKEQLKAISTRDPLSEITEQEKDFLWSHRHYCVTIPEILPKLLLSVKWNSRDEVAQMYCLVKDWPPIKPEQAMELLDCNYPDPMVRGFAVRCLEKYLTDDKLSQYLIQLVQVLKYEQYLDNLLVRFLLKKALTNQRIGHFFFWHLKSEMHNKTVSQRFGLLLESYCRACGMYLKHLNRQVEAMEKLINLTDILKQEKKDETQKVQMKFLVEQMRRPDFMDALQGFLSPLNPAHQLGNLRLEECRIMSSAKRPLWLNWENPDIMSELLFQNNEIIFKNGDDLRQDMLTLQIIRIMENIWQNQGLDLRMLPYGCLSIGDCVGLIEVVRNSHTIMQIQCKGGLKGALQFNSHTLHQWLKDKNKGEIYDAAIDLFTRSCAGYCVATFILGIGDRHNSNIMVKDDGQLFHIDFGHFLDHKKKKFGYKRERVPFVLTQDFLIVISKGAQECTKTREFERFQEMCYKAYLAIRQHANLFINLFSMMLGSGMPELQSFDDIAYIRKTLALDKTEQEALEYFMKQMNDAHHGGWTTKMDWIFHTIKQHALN
T1 sequence (P27986 whole entry partner): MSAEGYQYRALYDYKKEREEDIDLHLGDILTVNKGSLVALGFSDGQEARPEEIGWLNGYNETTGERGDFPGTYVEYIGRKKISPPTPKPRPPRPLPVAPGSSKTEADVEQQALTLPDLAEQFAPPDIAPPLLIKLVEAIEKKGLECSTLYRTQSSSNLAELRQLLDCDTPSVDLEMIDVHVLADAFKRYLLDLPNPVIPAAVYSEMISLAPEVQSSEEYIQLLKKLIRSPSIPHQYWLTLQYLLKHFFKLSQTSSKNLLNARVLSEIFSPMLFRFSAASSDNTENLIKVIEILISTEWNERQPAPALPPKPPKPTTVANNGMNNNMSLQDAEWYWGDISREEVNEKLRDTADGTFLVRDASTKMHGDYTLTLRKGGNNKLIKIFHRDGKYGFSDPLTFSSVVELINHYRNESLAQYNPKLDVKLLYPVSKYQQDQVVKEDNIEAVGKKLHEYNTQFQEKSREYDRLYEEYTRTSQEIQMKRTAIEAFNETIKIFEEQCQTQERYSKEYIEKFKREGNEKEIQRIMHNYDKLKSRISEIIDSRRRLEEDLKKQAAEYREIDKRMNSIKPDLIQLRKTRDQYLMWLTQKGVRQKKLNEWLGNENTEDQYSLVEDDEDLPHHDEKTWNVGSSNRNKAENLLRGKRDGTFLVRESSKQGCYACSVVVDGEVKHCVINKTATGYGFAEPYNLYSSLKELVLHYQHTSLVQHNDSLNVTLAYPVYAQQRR
Summary of the method: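 Recombinant full-length human GST-p110α/His-p85α, co-expressed in Sf9 cells, was incubated 30 min at room temperature with 20 μM PIP2 and 10 μM ATP. The buffer was 50 mM HEPES pH 7.4, 150 mM NaCl, 5 mM MgCl2, 1 mM DTT, 3 µM orthovanadate and 0.5% DMSO. ADP formed was detected by ADP-Glo luminescence.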

| SMILES | melting point [°C] | IC50 [1] [nM] | IC50 (PI3Kα (p110α/p85α)) [nM] |
| --- | --- | --- | --- |
| COCc1cccc(-c2nc(N3CCOCC3)c3sc(CN(C)c4ncc(C(=O)NO)cn4)cc3n2)c1 [Compound 139, N-hydroxy-2-(((2-(3-(methoxymethyl)phenyl)-4-morpholinothieno[3,2-d]pyrimidin-6-yl)methyl)(methyl)amino)pyrimidine-5-carboxamide] | 178 to 181 | < 100 | 100 to 1000 |
| CN(Cc1cc2nc(-c3cccc(CN)c3)nc(N3CCOCC3)c2s1)c1ncc(C(=O)NO)cn1 [Compound 137, 2-(((2-(3-(aminomethyl)phenyl)-4-morpholinothieno[3,2-d]pyrimidin-6-yl)methyl)(methyl)amino)-N-hydroxypyrimidine-5-carboxamide] | 173 to 176 | < 100 | 1000 to 10000 |
| CS(=O)(=O)N1CCN(Cc2cc3nc(-c4cccc5[nH]ncc45)nc(N4CCN(CCCCCCC(=O)NO)CC4)c3s2)CC1 [Compound 32, 7-(4-(2-(1H-indazol-4-yl)-6-((4-(methylsulfonyl)piperazin-1-yl)methyl)thieno[3,2-d]pyrimidin-4-yl)piperazin-1-yl)-N-hydroxyheptanamide] | 131 to 134 | 100 to 1000 | > 10000 |
| CN(C)c1ccc(-c2nc(N3CCOCC3)c3sc(CN(C)c4ncc(C(=O)NO)cn4)cc3n2)cn1 [Compound 114, 2-(((2-(6-(dimethylamino)pyridin-3-yl)-4-morpholinothieno[3,2-d]pyrimidin-6-yl)methyl)(methyl)amino)-N-hydroxypyrimidine-5-carboxamide] | 190 to 195 | < 100 | 100 to 1000 |
| CN(Cc1cc2nc(-c3ccc(C(N)=O)cc3)nc(N3CCOCC3)c2s1)c1ncc(C(=O)NO)cn1 [Compound 143, 2-(((2-(4-carbamoylphenyl)-4-morpholinothieno[3,2-d]pyrimidin-6-yl)methyl)(methyl)amino)-N-hydroxypyrimidine-5-carboxamide] | 200 to 202 | < 100 | 100 to 1000 |
| CCCN(Cc1cc2nc(-c3cccc4[nH]ncc34)nc(N3CCOCC3)c2s1)c1ncc(C(=O)NO)cn1 [Compound 84, 2-(((2-(1H-indazol-4-yl)-4-morpholinothieno[3,2-d]pyrimidin-6-yl)methyl)(propyl)amino)-N-hydroxypyrimidine-5-carboxamide] | 224 to 226 | < 100 | < 100 |
| CN(CCCCCCC(=O)NO)Cc1cc2nc(-c3cccc4[nH]ncc34)nc(N3CCOCC3)c2s1 [Compound 104, 7-(((2-(1H-indazol-4-yl)-4-morpholinothieno[3,2-d]pyrimidin-6-yl)methyl)(methyl)amino)-N-hydroxyheptanamide] | 131 to 133 | 100 to 1000 | < 100 |
| CS(=O)(=O)N1CCN(Cc2cc3nc(-c4cccc5nn(CCCCCC(=O)NO)cc45)nc(N4CCOCC4)c3s2)CC1 [Compound 8, N-hydroxy-6-(4-(6-((4-(methylsulfonyl)piperazin-1-yl)methyl)-4-morpholinothieno[3,2-d]pyrimidin-2-yl)-2H-indazol-2-yl)hexanamide] | 124 to 125 | < 100 | > 10000 |
| CC(C)CN(Cc1cc2nc(-c3cccc4[nH]ncc34)nc(N3CCOCC3)c2s1)c1ncc(C(=O)NO)cn1 [Compound 93, 2-(((2-(1H-indazol-4-yl)-4-morpholinothieno[3,2-d]pyrimidin-6-yl)methyl)(isobutyl)amino)-N-hydroxypyrimidine-5-carboxamide] | 196 to 198 | 100 to 1000 | 100 to 1000 |
| CN(Cc1cc2nc(-c3ccc(CO)cc3)nc(N3CCOCC3)c2s1)c1ncc(C(=O)NO)cn1 [Compound 140, N-hydroxy-2-(((2-(4-(hydroxymethyl)phenyl)-4-morpholinothieno[3,2-d]pyrimidin-6-yl)methyl)(methyl)amino)pyrimidine-5-carboxamide] | 218 to 223 | < 100 | 100 to 1000 |

Continued, values first:

| melting point [°C] | IC50 [1] [nM] | IC50 (PI3Kα (p110α/p85α)) [nM] | SMILES |
| --- | --- | --- | --- |
| 270 to 275 | < 100 | < 100 | CNc1ccc(-c2nc(N3CCOCC3)c3sc(C(C)N(C)c4ncc(C(=O)NO)cn4)cc3n2)cn1 (stereo not drawn) [Compound 237, N-Hydroxy-2-(methyl(1-(2-(6-(methylamino)pyridin-3-yl)-4-morpholinothieno[3,2-d]pyrimidin-6-yl)ethyl)amino)pyrimidine-5-carboxamide] |
| 170 to 183 | < 100 | 1000 to 10000 | CN(Cc1cc2nc(-c3ccc4c(c3)NCCO4)nc(N3CCOCC3)c2s1)c1ncc(C(=O)NO)cn1 [Compound 182, 2-(((2-(3,4-dihydro-2H-benzo[b][1,4]oxazin-6-yl)-4-morpholinothieno[3,2-d]pyrimidin-6-yl)methyl)(methyl)amino)-N-hydroxypyrimidine-5-carboxamide] |
| 208 to 210 | < 100 | > 10000 | CN(C)c1ccc(-c2nc(N3CCOCC3)c3sc(CN(C)c4ncc(C(=O)NO)cn4)cc3n2)cc1 [Compound 152, 2-(((2-(4-(dimethylamino)phenyl)-4-morpholinothieno[3,2-d]pyrimidin-6-yl)methyl)(methyl)amino)-N-hydroxypyrimidine-5-carboxamide] |
| 110 to 115 | < 100 | > 10000 | CN(Cc1cc2nc(-c3ccc(OCCN)nc3)nc(N3CCOCC3)c2s1)c1ncc(C(=O)NO)cn1 [Compound 259, 2-(((2-(6-(2-Aminoethoxy)pyridin-3-yl)-4-morpholinothieno[3,2-d]pyrimidin-6-yl)methyl)(methyl)amino)-N-hydroxypyrimidine-5-carboxamide] |
| 200 to 203 | < 100 | 1000 to 10000 | CN(Cc1cc2nc(-c3cccc4[nH]ncc34)nc(Nc3ccccn3)c2s1)c1ncc(C(=O)NO)cn1 [Compound 168, 2-(((2-(1H-indazol-4-yl)-4-(pyridin-2-ylamino)thieno[3,2-d]pyrimidin-6-yl)methyl)(methyl)amino)-N-hydroxypyrimidine-5-carboxamide] |
| 272 to 275 | < 100 | > 10000 | CN(Cc1cc2nc(-c3ccc4[nH]c(=O)[nH]c4c3)nc(N3CCOCC3)c2s1)c1ncc(C(=O)NO)cn1 [Compound 186, N-hydroxy-2-(methyl((4-morpholino-2-(2-oxo-2,3-dihydro-1H-benzo[d]imidazol-5-yl)thieno[3,2-d]pyrimidin-6-yl)methyl)amino)pyrimidine-5-carboxamide] |
| 162 to 165 | < 100 | < 100 | CCOc1ccc(-c2nc(N3CCOCC3)c3sc(CN(C)c4ncc(C(=O)NO)cn4)cc3n2)cn1 [Compound 255, 2-(((2-(6-ethoxypyridin-3-yl)-4-morpholinothieno[3,2-d]pyrimidin-6-yl)methyl)(methyl)amino)-N-hydroxypyrimidine-5-carboxamide] |
| > 300 | < 100 | < 100 | COc1ccc(-c2nc(N3CCOCC3)c3sc(NS(=O)(=O)c4cccc(/C=C/C(=O)NO)c4)cc3n2)cn1 [Compound 221, (E)-N-hydroxy-3-(3-(N-(2-(6-methoxypyridin-3-yl)-4-morpholinothieno[3,2-d]pyrimidin-6-yl)sulfamoyl)phenyl)acrylamide] |
| 214 to 217 | < 100 | 100 to 1000 | CN(Cc1cc2nc(-c3cn[nH]c3)nc(N3CCOCC3)c2s1)c1ncc(C(=O)NO)cn1 [Compound 196, N-hydroxy-2-(methyl((4-morpholino-2-(1H-pyrazol-4-yl)thieno[3,2-d]pyrimidin-6-yl)methyl)amino)pyrimidine-5-carboxamide] |
| 200 to 205 | < 100 | < 100 | CNc1ccc(-c2nc(N3CCOCC3)c3sc(C(C)(C)Nc4ncc(C(=O)NO)cn4)cc3n2)cn1 [Compound 240, N-Hydroxy-2-(2-(2-(6-(methylamino)pyridin-3-yl)-4-morpholinothieno[3,2-d]pyrimidin-6-yl)propan-2-ylamino)pyrimidine-5-carboxamide] |
| 214 to 218 | < 100 | < 100 | CN(Cc1cc2nc(-c3ccc(N)c(O)c3)nc(N3CCOCC3)c2s1)c1ncc(C(=O)NO)cn1 [Compound 279, 2-(((2-(4-Amino-3-hydroxyphenyl)-4-morpholinothieno[3,2-d]pyrimidin-6-yl)methyl)(methyl)amino)-N-hydroxypyrimidine-5-carboxamide] |
| 143 to 145 | 100 to 1000 | 100 to 1000 | CS(=O)(=O)N1CCN(Cc2cc3nc(-c4ccc(OCCCCCCC(=O)NO)cc4)nc(N4CCOCC4)c3s2)CC1 [Compound 321, N-Hydroxy-7-(4-(6-((4-(methylsulfonyl)piperazin-1-yl)methyl)-4-morpholinothieno[3,2-d]pyrimidin-2-yl)phenoxy)heptanamide] |
| > 300 | < 100 | < 100 | Nc1ncc(-c2nc(N3CCOCC3)c3sc(NS(=O)(=O)c4ccc(/C=C/C(=O)NO)cc4)cc3n2)cn1 [Compound 217, (E)-3-(4-(N-(2-(2-aminopyrimidin-5-yl)-4-morpholinothieno[3,2-d]pyrimidin-6-yl)sulfamoyl)phenyl)-N-hydroxyacrylamide] |
